The data set can be described thus: Chemical stability. The data set is classed as physicochemical.

SMILES strings stand for the structures.

In the case of `CC(CCC(=O)C(C)(C)OS(=O)(=O)O)[C@H]1CCC2C3C(CC[C@@]21C)[C@@]1(C)CC[C@H](NCCCNCCCCN)C[C@@H]1C[C@H]3O` (stereo partly shown) [FX1A], the stability in water entry is reported as “undergo conversion to another molecule (FX 1B) rapidly in water”.

Values taken from patent publication US5994336A, “Method of inhibiting proliferation of cells by administering an aminosterol compound” (priority 1995, dated 1999).
